From US9993462B2, “Hydantoin derivative-containing pharmaceutical composition” (Chugai Seiyaku Kabushiki Kaisha, priority 2014, dated 2018)

Tested on: ovariectomized rats
Test: Bone mineral density after six weeks of repeated administration to ovariectomized rats
Format: in vivo, rat
Conditions: once a day for six weeks, Compound 7 30 mg/kg oral
Description: Female Crl:CD(SD) rats obtained from Charles River Japan, Inc. were acclimated for one week or longer under standard laboratory conditions of 20° C. to 26° C. and 35% to 75% humidity, and then used in experiments. The rats had free access to tap water and a standard rodent diet (CE-2) (Clea Japan Inc.) containing 1.1% calcium, 1.0% phosphoric acid, and 250 IU/100 g vitamin D3.
Twelve-week old rats were subjected to removal of both ovaries by surgery (OVX) or to sham surgery (Sham). After the body weight was determined in the fourth week after surgery, the rats were divided into groups so that the average body weight of each group of six rats would be even. From the subsequent day after group division, each rat was subjected to repeated administration once a day for six weeks. The solvent for oral administration (vehicle) and the solvent for subcutaneous administration (PC buffer) were respectively administered orally and subcutaneously to rats of the Sham-Control group. Vehicle and PC buffer were orally and subcutaneously administered to rats of the OVX-Control group, respectively. To rats of OVX-Compound 7, the above-mentioned Compound 7 dissolved in the vehicle was orally administered at a dose of 30 mg/kg, and PC buffer was administered subcutaneously. To rats of the OVX-hPTH(1-34) group, the vehicle was orally administered, and hPTH(1-34) dissolved in PC buffer was subcutaneously administered at a dose of 0.9 nmol/kg.
The level of AUC (area under the curve for blood concentration vs. time) was the same as when 20 μg of Forteo®, a therapeutic agent clinically used for osteoporosis, is administered to humans when the administration dose for rats was set to 0.9 nmol/kg. The administration doses were 5 mL/kg for oral administration and 1 mL/kg for subcutaneous administration in all groups. The vehicle used was a composition prepared from 10% dimethyl sulfoxide (Wako Pure Chemical Industries, Ltd.), 10% Kolliphor EL (Sigma-Aldrich Japan), and 10% hydroxypropyl-β-cyclodextrin (Nihon Shokuhin Kako Co., Ltd), whose pH was adjusted to 10 using glycine (Wako Pure Chemical Industries, Ltd.) and sodium hydroxide (Wako Pure Chemical Industries, Ltd.). The PC buffer used was a composition prepared from 25 mmol/L phosphate-citrate buffer, 100 mmol/L NaCl, and 0.05% Tween80, adjusted to pH 5.0. […] The bone mineral densities of the lumbar spine and femur were determined using a dual X-ray bone mineral scanner (DCS-600EX, Aloka). The lumbar spine bone mineral density was determined by measuring the second to fourth lumbar vertebrae; and the femur bone mineral density was determined by vertically dividing the femur into ten parts, and measuring the three parts at the distal end of the knees. […]

`Cc1cc(N2C(=O)NC(=O)C2(C)C)cc(C)c1CCS(=O)(=O)N1CCC2(CC1)N=C(c1ccc(OC(F)(F)F)cc1)NC2=O` [Compound 7, 1-(3,5-dimethyl-4-(2-((4-oxo-2-(4-(trifluoromethoxy)phenyl)-1,3,8-triazaspiro[4.5]deca-1-en-8-yl)sulfonyl)ethyl)phenyl)-5,5-dimethylimidazolidine-2,4-dione] was tested, and the “lumbar spine bone mineral density with respect to the OVX-Control group (in words)” value was “increasing trend” and the “percentage of increase in femur bone mineral density with respect to the OVX-Control group” value (hPTH(1-34) 0.9 nmol/kg subcutaneous) was 12%.
